The values below come from patent US11229614B2, “Supramolecular hydrogel applications to the carotid bodies to treat hypertension and sleep apnea in obesity” (THE JOHNS HOPKINS UNIVERSITY, priority 2017, dated 2022).

One data set deals with C57BL/6J mice. The class given is in vivo. The method, then: Blood pressure telemetry (FIG. 2) and sleep studies in mice. […] Then blood pressure was measured at baseline (Day 0). The leptin osmotic pump was implanted SC to deliver 120 μg/day of the hormone, which increased leptin levels to 40-50 ng/ml which corresponded to plasma leptin levels in severely obese mice. Blood pressure measured after 2 days of leptin infusion (Day 2) followed by removal of the osmotic pump. On Day 5, the carotid artery bifurcation was exposed and co-assembled FTY720-PA filamentous nanostructures were applied bilaterally (5 μg/side). […] The leptin osmotic pump was reinserted on Day 9 and blood pressure was measured after two days of leptin infusion on Day 11. The pump was removed on Day 12 and reinserted on Day 20 followed by blood pressure measurement on Day 22. […] Leptin increased mean arteria blood pressure by 13±6 mm Hg and this effect was abolished by FTY720. […] Allowing 10% attrition rate, it will require 28 male (14 DIO and 14 lean) and 28 female C57BL/6J mice (14 DIO and 14 lean).

The conditions of data set [1]: mice; cited from earlier work.
Data set [2] is described as follows: Maximum solubility at pH 7.4. It counts as physicochemical.
For data set [3] the following is noted: humans; cited from earlier work.

Read-outs that look alike come from different tables or passages of the source.

As a reminder, the half-life is the time in which the quantity being followed falls by half. As usually defined, the solubility is how much of the substance goes into solution per volume. Low values mean little dissolved substance, high ones much dissolved substance. As to `CCCCCCCCc1ccc(CCC(N)(CO)CO)cc1.Cl` [FTY720, 2-Amino-2-[2-(4-octyl-phenyl)-ethyl]-propane-1,3-diol hydrochloride], the leptin-induced hypertension result in the data set on C57BL/6J mice (FTY720 in Matrigel at 0.3 mg/kg/day applied to CB (FIG. 2)) and with C57BL/6J mice (administered to CB locally) was “abolished leptin-induced hypertension” throughout. In the data set on C57BL/6J mice (mouse, in vivo), the “effect on leptin-induced increase of mean arterial blood pressure” value is “abolished”. Also, the half-life in data set [1] was 9 h; in data set [3], 170 h. In data set [2], the solubility is 81 µM.
Regarding “Leptin: hormone delivered by SC osmotic pump to induce hypertension”, in the data set with C57BL/6J mice (leptin infusion), the “increase of mean arterial blood pressure” value is on record as 13±6 mm Hg.
